Where two headings read alike, the source gives them in different places.
Tests used:
[1] = system: HT-29 (colon adenocarcinoma); experiment: Inhibition of tumor cell growth, SRB-assay, HT-29; type: cell-based, human
Protocol: (§1) The KB cell lines were grown in Dulbecco's modified Eagle's medium (4,5 g glucose/l). To the cultures of KB-C1 cells 1 μg of colchicine/ml, and to the hydroxyurea-resistant KB-HU cells 1 mM hydroxyurea was added every other week. […] 3,000 - 10,000 cells in 200 μl medium were seeded per well into 96-well plates. […] Approximately 10,000 cells per 100 μl were seeded in 96-well plates. […] The substances were dissolved in dimethylsulfoxide (DMSO). […] Subsequently, the samples were fixed, washed, and the absorption was determined by a microplate reader.

[2] = system: HeLa (epitheloid cervix carcinoma); experiment: Inhibition of tumor cell growth, SRB-assay, HeLa; type: cell-based, human
[3] = system: Burkitt's lymphoma (CA 46, ATCC No. CRL 1648); experiment: Inhibition of tumor cell growth, MTT-assay, Burkitt's lymphoma; type: cell-based, human
Protocol: as §1

[4] = system: KB-HU hydroxyurea-resistant cells; experiment: Inhibition of tumor cell growth, SRB-assay, KB-HU; type: cell-based, human
Protocol: (§2) In order to obtain information about the growth-inhibiting action on tumor cells, the inhibition of the growth of the following human tumor cells was determined: Burkitt's lymphoma (CA 46, ATCC No. CRL 1648), CCRF-CEM (acute lymphoblastic leukemia, ATCC No. CCL 119), K562 (chronic myelogenous leukemia, ATTC No. CCL 243), HeLa (epitheloid cervix carcinoma, ATCC No. CCL 2), MEXF 276L (melanoma), HT-29 (colon adenocarcinoma, ATCC No. HTB 38), KB-3-1 (human oral epidermoid carcinoma, CTCC No. CCL 17), KB-HU hydroxyurea-resistant, multidrug-resistant KB-C1 cells (Akiyama et al, Cell. Mol Genet., 11:117–126, 1985). Burkitt's, CCRF-CEM, HeLa and MEXF 276L cells were grown in RPMI 1640, HT-29 cells in McCoy's 5A medium. The KB cell lines were grown in Dulbecco's modified Eagle's medium (4,5 g glucose/l). To the cultures of KB-C1 cells 1 μg of colchicine/ml, and to the hydroxyurea-resistant KB-HU cells 1 mM hydroxyurea was added every other week. The media were supplemented with 10% fetal calf serum (except Burkitt's lymphoma cells with 15%), 2 mM glutamine, 50 units/ml penicillin and 50 μg/ml streptomycin. Inhibition of growth of HeLa, HT-29, KB and MEXF 276L cells was detected by the SRB-assay (Skehan et al, J. Natl Cancer Inst., 82:1107–1112, 1990). 3,000 - 10,000 cells in 200 μl medium were seeded per well into 96-well plates. Dose-response curves for CCRF-CEM and Burkitt's lymphoma cells were effected by an MTT-assay (Mosman, J. Immunol Methods, 65:55–63, 1983) from Boehringer Mannheim, Mannheim, Germany. Approximately 10,000 cells per 100 μl were seeded in 96-well plates. After an initial incubation of four hours, various substance concentrations were added, and the cells were incubated at 37° C. in a water-saturated atmosphere of 95% air and 5% CO2 for 72 hours. The substances were dissolved in dimethylsulfoxide (DMSO). The concentration of DMSO was 0.5%, and this was not toxic to the cells. Subsequently, the samples were fixed, washed, and the absorption was determined by a microplate reader.

[5] = system: multidrug-resistant KB-C1 cells; experiment: Inhibition of tumor cell growth, SRB-assay, KB-C1; type: cell-based, human
Protocol: as §2

[6] = system: human tumor grafts (cell lines of FIG. 1); experiment: Colony forming assay (two-layer soft agar); type: cell-based; settings: for tumor type selectivity: colony forming assay, IC70 pattern, FIG. 1; for IC50 / IC90 / Mean IC70: mean values of all cell lines tested in FIG. 1, continuous exposure 3 to 6 days
Protocol: An excellent correlation of drug response in patients and the colony forming assay has been found (Scholz et al, Eur. J. Cancer 25:901–905, 1990). Solid human tumors were grown as grafts in nude mice, removed from the latter, mechanically comminuted and subsequently incubated in an enzyme cocktail consisting of collagenase (1.2–1.8 U/ml), DNAse (375 U/ml) and hyaluronidase (29 U/ml) in RPMI 1640 medium at 37° C. for 30 minutes. The cell mixture was passed through sieves of 200 μm and 50 μm mesh size and washed thereafter twice with PBS (phosphate buffered saline). The percentage of live cells was determined using a Neubauer counting chamber and trypan blue staining.
The colony forming assay was performed according to a two-layer agar technique introduced and modified by Hamburger and Salmon (Hamburger and Salmon, Science, 197:461–463, 1977). The bottom layer consisted of 0.2 ml of Iscoves's Modified Dulbecco's medium with 20% fetal calf serum and 0.75% agar. 8×10^3 to 1.6×10^4 cells were added to the same medium and 0.4% agar and plated in 24-multiwell plates onto the base layer. One day after the plating (with continuous exposure), the substances were added in 0.2 ml medium. Each plate included six controls containing the solvent only, and the treated groups contained 6 concentrations of the substances, each in triplicate. Cultures were incubated at 37° C. and 7% CO2 in a water-saturated atmosphere for 3 to 6 days, depending on the doubling time of the tumor cells. At the time of maximum colony formation with a size of […], counts were performed with an automatic image analysis system. 24 h prior to counting, live colonies were stained with a sterile aqueous solution of 2-(4-iodophenyl)-3-(4-nitrophenyl)-5-phenyltetrazolium chloride (1 mg/ml, 100 μl/well). The results of the tests are given in FIG. 1, and in the following Table 5, respectively. […] Columns pointing towards the right show a slighter than average activity.

[7] = system: KB-3-1 (human oral epidermoid carcinoma); experiment: Inhibition of tumor cell growth, SRB-assay, KB-3-1; type: cell-based
Protocol: as §2

[8] = Table 1, 72 hours, read-out: IC50 HT-29 (converted)
[9] = Table 1, 72 hours, read-out: IC50 HeLa (converted)
[10] = Table 1, 72 hours, read-out: IC50 Burkitts
[11] = Table 4, 72 hours, read-out: In vitro-activity against human tumor cell lines, KB-HU
[12] = Table 4, 72 hours, read-out: In vitro-activity against human tumor cell lines, KB-C1
[13] = Table 4, 72 hours, read-out: In vitro-activity against human tumor cell lines, KB-3-1
[14] = Table 1, 72 hours, read-out: IC50 KB-HU
[15] = Table 1, 72 hours, read-out: IC50 KB-Cl
[16] = Table 1, 72 hours, read-out: IC50 KB-3-1
[17] = Table 4, 72 hours, read-out: In vitro-activity against human tumor cell lines, HT-29
[18] = Table 4, 72 hours, read-out: In vitro-activity against human tumor cell lines, HeLa
[19] = Table 4, 72 hours, read-out: In vitro-activity against human tumor cell lines, Burkitts

Row | SMILES | IC50 [1, 8] [µM] | IC50 [2, 9] [µM] | IC50 [4, 11] [µM] | IC50 [5, 12] [µM] | IC50 [7, 13] [µM] | IC50 [5, 15] [µM] | IC50 [1, 17] [µM] | IC50 [2, 18] [µM] | other results
1 | Cn1c(NN=Cc2ccccn2)nc2ccccc21 [Ia-2] | 0.27 | 0.08 | – | – | – | – | – | – | IC50 [3, 10]: 0.03 µM
2 | C(=NNc1nc2ccccc2o1)c1ccccn1 [Ia-3] | 1.44 | 0.025 | – | – | – | 0.77 | – | – | IC50 [4, 14]: 0.61 µM; IC50 [3, 10]: 0.005 µM; IC50 [7, 16]: 0.48 µM
3 | COc1cccnc1C(C)=NNc1nc2ccccc2n1C [Id-1, 1-(3-Methoxy-2-pyridyl)-1-ethanone-1-(1-methyl-1H-benzo[d]imidazol-2-yl)-hydrazone] | – | – | – | – | – | – | – | – | IC50 ([1]; Homo sapiens, HT-29, Table 4, 72 hours, read-out: In vitro-activity against human tumor cell lines, HT-29): 0.23 µM; IC50 ([4]; Homo sapiens, Table 4, 72 hours, read-out: In vitro-activity against human tumor cell lines, KB-HU): 0.01 µM; IC50 ([2]; Homo sapiens, HeLa, Table 4, 72 hours, read-out: In vitro-activity against human tumor cell lines, HeLa): 0.05 µM; IC50 ([3]; Homo sapiens, CA46, Table 4, 72 hours, read-out: In vitro-activity against human tumor cell lines, Burkitts): 0.001 µM; IC50 ([5]; Homo sapiens, KBC-1, Table 4, 72 hours, read-out: In vitro-activity against human tumor cell lines, KB-C1): 0.87 µM; IC50 ([7]; Homo sapiens, KB 3-1, Table 4, 72 hours, read-out: In vitro-activity against human tumor cell lines, KB-3-1): 0.02 µM
4 | CC(=NNc1nc2ccccc2n1C)c1cccc(Br)n1 [Id-6] | – | – | 3.89 | 2.13 | 1.69 | – | 3.15 | 3.25 | IC50 [3, 19]: 2.49 µM
5 | CC(C)(C)C(=NNc1nc2ccccc2[nH]1)c1ccccn1 [Ia-19] | > 100 | > 100 | – | – | – | 92 | – | – | –
6 | c1ccc(C(=NNc2nc3ccccc3[nH]2)c2ccccn2)nc1 [Ia-36] | 1.36 | 1.43 | – | – | – | 2.11 | – | – | –
7 | CC(C)C(=NNc1nc2ccccc2[nH]1)c1ccccn1 [Ia-15] | 0.52 | 0.021 | – | – | – | 1.98 | – | – | IC50 [4, 14]: 0.001 µM; IC50 [7, 16]: 0.7 µM
8 | CC(=NNc1nc2ccccc2n1C)c1ncccc1Cl [Id-3] | – | – | 0.18 | 0.3 | 0.31 | – | 0.54 | 0.25 | IC50 [3, 19]: 0.004 µM
9 | CCCC(=NNc1nc2ccccc2[nH]1)c1ccccn1 [Ia-11] | 0.2 | 0.057 | – | – | – | 0.83 | – | – | IC50 [4, 14]: 0.13 µM; IC50 [7, 16]: 0.5 µM

Further lines, with some results ahead:

Row | IC50 [1, 8] [µM] | IC50 [2, 9] [µM] | IC50 [4, 11] [µM] | IC50 [5, 12] [µM] | IC50 [7, 13] [µM] | IC50 [5, 15] [µM] | IC50 [1, 17] [µM] | IC50 [2, 18] [µM] | SMILES | other results
10 | – | – | 0.02 | 0.1 | 0.03 | – | – | – | CC(=NNc1nc2ccccc2n1C)c1cc(C)ccn1 [Id-8] | tumor type selectivity [6]: selectivity for colon, breast, ovarian, and uterus tumors; IC50 [6]: 0.102 µM; IC90 [6]: 2.39 µM; Mean IC70 [6]: 0.317 µM
11 | – | – | 2.23 | 1.8 | 0.49 | – | 0.8 | 0.38 | CC(=NNc1nc2ccccc2n1C)c1cccc(C)n1 [Id-10] | IC50 [3, 19]: 0.11 µM
12 | – | – | 0.04 | 0.16 | 0.05 | – | 0.12 | 0.05 | COc1ccnc(C(C)=NNc2nc3ccccc3n2C)c1 [Id-2] | tumor type selectivity [6]: selectivity for colon, breast, ovarian, and uterus tumors; IC50 [6]: 0.08 µM; IC90 [6]: 2.85 µM; Mean IC70 [6]: 0.261 µM
